In patent publication US9409884B2 (Rigel Pharmaceuticals, Inc., priority 2012, dated 2016):

Target: AMPK
Assay: AMPK activation, enzyme-linked immunosorbent assay
Assay type: biochemical
Conditions: Table 8, compounds of Table 1
How it was run: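 Read-out: ELISA, used to detect compound-driven activation of AMPK.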

With `O=C(NC1CCNCC1)c1sc2cc(OC3CCN(c4ccc(C(F)(F)F)cc4)CC3)ccc2c1Cl` [Compound 1-148, 3-chloro-N-(piperidin-4-yl)-6-(1-(4-(trifluoromethyl)phenyl)piperidin-4-yloxy)benzo [b]thiophene-2-carboxamide] the EC50 was > 10000 nM.
For `CC(C)(C)OC(=O)N1CCC(NC(=O)c2cc3cc(OC4CCN(c5ccc(C(F)(F)F)cc5)CC4)ccc3s2)CC1` [Compound 1-149, tert-butyl 4-(5-(1-(4-(trifluoromethyl)phenyl)piperidin-4-yloxy)benzo [b]thiophene-2-carboxamido) piperidine-1-carboxylate], the EC50 was < 100 nM.
With `O=C(NC1CCNCC1)c1cc2cc(OC3CCN(c4ccc(C(F)(F)F)cc4)CC3)ccc2s1` [Compound 1-150, N-(piperidin-4-yl)-5-(1-(4-(trifluoromethyl)phenyl)piperidin-4-yloxy)benzo [b]thiophene-2-carboxamide] the EC50 was 1000 to 5000 nM.
For `O=C(NC1CCN(Cc2ccncc2)CC1)c1sc2cc(OC3CCN(c4ccc(C(F)(F)F)cc4)CC3)ccc2c1Cl` [Compound 1-151, 3-chloro-N-(1-(pyridin-4-ylmethyl)piperidin-4-yl)-6-(1-(4-(trifluoromethyl)phenyl)piperidin-4-yloxy)benzo[b] thiophene-2-carboxamide], the EC50 was < 100 nM.
In the case of `O=C(NC1CCN(Cc2cccnc2)CC1)c1sc2cc(OC3CCN(c4ccc(C(F)(F)F)cc4)CC3)ccc2c1Cl` [Compound 1-152, 3-chloro-N-(1-(pyridin-3-ylmethyl)piperidin-4-yl)-6-(1-(4-(trifluoromethyl)phenyl)piperidin-4-yloxy)benzo[b] thiophene-2-carboxamide], the EC50 is reported as < 100 nM.
`O=C(NC1CCN(Cc2ccccn2)CC1)c1sc2cc(OC3CCN(c4ccc(C(F)(F)F)cc4)CC3)ccc2c1Cl` [Compound 1-153, 3-chloro-N-(1-(pyridin-2-ylmethyl)piperidin-4-yl)-6-(1-(4-(trifluoromethyl)phenyl)piperidin-4-yloxy)benzo[b] thiophene-2-carboxamide] was tested, and the EC50 was 100 to 500 nM.
With `N#Cc1ccc(CN2CCC(NC(=O)c3sc4cc(OC5CCN(c6ccc(C(F)(F)F)cc6)CC5)ccc4c3Cl)CC2)cc1` [Compound 1-154, 3-chloro-N-(1-(4-cyanobenzyl)piperidin-4-yl)-6-(1-(4-(trifluoromethyl)phenyl)piperidin-4-yloxy)benzo[b] thiophene-2-carboxamide] the EC50 was < 100 nM.
In the case of `O=C(NC1CCN(C(=O)c2ccncc2)CC1)c1sc2cc(OC3CCN(c4ccc(C(F)(F)F)cc4)CC3)ccc2c1Cl` [Compound 1-155, 3-chloro-N-(1-isonicotinoylpiperidin-4-yl)-6-(1-(4-(trifluoromethyl)phenyl)piperidin-4-yloxy)benzo[b] thiophene-2-carboxamide], the EC50 is reported as < 100 nM.
`CC(C)(C)OC(=O)N1CCC(NC2CCc3cc(OC4CCN(c5ccc(C(F)(F)F)cc5)CC4)ccc32)CC1` (stereo not shown) [Compound 1-156, tert-butyl 4-(5-(1-(4-(trifluoromethyl)phenyl)piperidin-4-yloxy)-2,3-dihydro-1H-inden-1-ylamino)piperidine-1-carboxylate] showed an EC50 of 100 to 500 nM.
In the case of `FC(F)(F)c1ccc(N2CCC(Oc3ccc4c(c3)CCC4NC3CCNCC3)CC2)cc1` (stereo not shown) [Compound 1-157, N-(5-(1-(4-(trifluoromethyl)phenyl)piperidin-4-yloxy)-2,3-dihydro-1H-inden-1-yl)piperidin-4-amine], the EC50 is reported as 1000 to 5000 nM.
In the case of `FC(F)(F)c1ccc(N2CCC(Oc3ccc4c(c3)CCC4NC3CCN(Cc4ccncc4)CC3)CC2)cc1` (stereo not shown) [Compound 1-158, 1-(pyridin-4-ylmethyl)-N-(5-(1-(4-(trifluoromethyl)phenyl)piperidin-4-yloxy)-2,3-dihydro-1H-inden-1-yl)piperidin-4-amine], the EC50 is reported as 100 to 500 nM.
`Fc1ccc(CN2CCC(NC3CCc4cc(OC5CCN(c6ccc(C(F)(F)F)cc6)CC5)ccc43)CC2)cc1` (stereo not shown) [Compound 1-159, 1-(4-fluorobenzyl)-N-(5-(1-(4-(trifluoromethyl)phenyl)piperidin-4-yloxy)-2,3-dihydro-1H-inden-1-yl)piperidin-4-amine] gave an EC50 of 100 to 500 nM.
`N#Cc1ccc(CN2CCC(NC3CCc4cc(OC5CCN(c6ccc(C(F)(F)F)cc6)CC5)ccc43)CC2)cc1` (stereo not shown) [Compound 1-160, 4-((4-(5-(1-(4-(trifluoromethyl)phenyl)piperidin-4-yloxy)-2,3-dihydro-1H-inden-1-ylamino)piperidin-1-yl)methyl)benzonitrile] was tested, and the EC50 was < 100 nM.
With `N#Cc1ccc(CN2CCC(NC(=O)c3cc4ccc(OC5CCN(Cc6cnn(-c7ccc(C#N)cc7)c6)CC5)cc4o3)CC2)cc1` [Compound 1-161, N-(1-(4-cyanobenzyl)piperidin-4-yl)-6-(1-((1-(4-cyanophenyl)-1H-pyrazol-4-yl)methyl)piperidin-4-yloxy)benzofuran-2-carboxamide] the EC50 was 500 to 1000 nM.
With `N#Cc1ccc(CN2CCC(NC(=O)c3cc4cc(OC5CCN(Cc6cnn(-c7ccc(C#N)cc7)c6)CC5)ccc4o3)CC2)cc1` [Compound 1-162, N-(1-(4-cyanobenzyl)piperidin-4-yl)-5-(1-((1-(4-cyanophenyl)-1H-pyrazol-4-yl)methyl)piperidin-4-yloxy)benzofuran-2-carboxamide] the EC50 was < 100 nM.
For `N#Cc1ccc(CN2CCC(NC(=O)c3cc4cc(OC5CCN(C(=O)c6ccc(-n7cccn7)cc6)CC5)ccc4o3)CC2)cc1` [Compound 1-163, 5-(1-(4-(1H-pyrazol-1-yl)benzoyl)piperidin-4-yloxy)-N-(1-(4-cyanobenzyl)piperidin-4-yl)benzofuran-2-carboxamide], the EC50 was < 100 nM.
With `N#Cc1ccc(CN2CCC(NC(=O)c3cc4cc(O[C@@H]5CCN(Cc6ccc(-n7cccn7)cc6)C[C@H]5F)ccc4o3)CC2)cc1` [Compound 1-164, 5-((3,4-trans)-1-(4-(1H-pyrazol-1-yl)benzyl)-3-fluoropiperidin-4-yloxy)-N-(1-(4-cyanobenzyl)piperidin-4-yl)benzofuran-2-carboxamide] the EC50 was 100 to 500 nM.
With `N#Cc1ccc(CN2CCC(NC(=O)c3cc4cc(O[C@@H]5CCN(Cc6ccc(Oc7ccc(F)cc7)cc6)C[C@H]5F)ccc4o3)CC2)cc1` [Compound 1-165, N-(1-(4-cyanobenzyl)piperidin-4-yl)-5-((3,4-trans)-3-fluoro-1-(4-(4-fluorophenoxy)benzyl)piperidin-4-yloxy)benzofuran-2-carboxamide] the EC50 was < 100 nM.
With `N#Cc1ccc(CN2CCC(NC(=O)c3cc4cc(O[C@@H]5CCN(Cc6cnn(-c7ccc(C#N)cc7)c6)C[C@H]5F)ccc4o3)CC2)cc1` [Compound 1-166, N-(1-(4-cyanobenzyl)piperidin-4-yl)-5-((3,4-trans)-1-((1-(4-cyanophenyl)-1H-pyrazol-4-yl)methyl)-3-fluoropiperidin-4-yloxy)benzofuran-2-carboxamide] the EC50 was < 100 nM.
For `CS(=O)(=O)c1ccc(CN2CC[C@@H](Oc3ccc4oc(C(=O)NC5CCN(Cc6ccc(C#N)cc6)CC5)cc4c3)[C@H](F)C2)cc1` [Compound 1-167, N-(1-(4-cyanobenzyl)piperidin-4-yl)-5-((3,4-trans)-3-fluoro-1-(4-(methylsulfonyl)benzyl)piperidin-4-yloxy)benzofuran-2-carboxamide], the EC50 was < 100 nM.
In the case of `N#Cc1ccc(CN2CCC(NC(=O)c3cc4cc(O[C@@H]5CCN(Cc6ccc(OC(F)(F)F)cc6)C[C@H]5F)ccc4o3)CC2)cc1` [Compound 1-168, N-(1-(4-cyanobenzyl)piperidin-4-yl)-5-((3,4-trans)-3-fluoro-1-(4-(trifluoromethoxy)benzyl)piperidin-4-yloxy)benzofuran-2-carboxamide], the EC50 is reported as < 100 nM.
`O=C(NC1CCN(Cc2ccc(OC(F)(F)F)cc2)CC1)c1cc2cc(O[C@@H]3CCN(Cc4ccc(-n5cccn5)cc4)C[C@H]3F)ccc2o1` [Compound 1-169, 5-((3,4-trans)-1-(4-(1H-pyrazol-1-yl)benzyl)-3-fluoropiperidin-4-yloxy)-N-(1-(4-(trifluoromethoxy)benzyl)piperidin-4-yl)benzofuran-2-carboxamide] was tested, and the EC50 was < 100 nM.
In the case of `O=C(NC1CCN(Cc2ccc(OC(F)(F)F)cc2)CC1)c1cc2cc(O[C@@H]3CCN(Cc4ccc(Oc5ccc(F)cc5)cc4)C[C@H]3F)ccc2o1` [Compound 1-170, 5-((3,4-trans)-3-fluoro-1-(4-(4-fluorophenoxy)benzyl)piperidin-4-yloxy)-N-(1-(4-(trifluoromethoxy)benzyl)piperidin-4-yl)benzofuran-2-carboxamide], the EC50 is reported as < 100 nM.
For `N#Cc1ccc(-n2cc(CN3CC[C@@H](Oc4ccc5oc(C(=O)NC6CCN(Cc7ccc(OC(F)(F)F)cc7)CC6)cc5c4)[C@H](F)C3)cn2)cc1` [Compound 1-171, 5-((3,4-trans)-1-((1-(4-cyanophenyl)-1H-pyrazol-4-yl)methyl)-3-fluoropiperidin-4-yloxy)-N-(1-(4-(trifluoromethoxy)benzyl)piperidin-4-yl)benzofuran-2-carboxamide], the EC50 was < 100 nM.
In the case of `CS(=O)(=O)c1ccc(CN2CC[C@@H](Oc3ccc4oc(C(=O)NC5CCN(Cc6ccc(OC(F)(F)F)cc6)CC5)cc4c3)[C@H](F)C2)cc1` [Compound 1-172, 5-((3,4-trans)-3-fluoro-1-(4-(methylsulfonyl)benzyl)piperidin-4-yloxy)-N-(1-(4-(trifluoromethoxy)benzyl)piperidin-4-yl)benzofuran-2-carboxamide], the EC50 is reported as < 100 nM.
For `O=C(NC1CCN(Cc2ccc(OC(F)(F)F)cc2)CC1)c1cc2cc(O[C@@H]3CCN(Cc4ccc(OC(F)(F)F)cc4)C[C@H]3F)ccc2o1` [Compound 1-173, 5-((3,4-trans)-3-fluoro-1-(4-(trifluoromethoxy)benzyl)piperidin-4-yloxy)-N-(1-(4-(trifluoromethoxy)benzyl)piperidin-4-yl)benzofuran-2-carboxamide], the EC50 was < 100 nM.
In the case of `N#Cc1ccc(CN2CCC(NC(=O)c3cc4cc(OC5CCN(Cc6ccc(C(F)(F)F)cc6)CC5)ccc4o3)CC2)cc1` [Compound 1-174, N-(1-(4-cyanobenzyl)piperidin-4-yl)-5-(1-(4-(trifluoromethyl)benzyl)piperidin-4-yloxy)benzofuran-2-carboxamide], the EC50 is reported as < 100 nM.
For `CS(=O)(=O)c1ccc(CN2CCC(Oc3ccc4oc(C(=O)NC5CCN(Cc6ccc(C#N)cc6)CC5)cc4c3)CC2)cc1` [Compound 1-175, N-(1-(4-cyanobenzyl)piperidin-4-yl)-5-(1-(4-(methylsulfonyl)benzyl)piperidin-4-yloxy)benzofuran-2-carboxamide], the EC50 was < 100 nM.
